Our source for the IC50 values is US20260240847A1, “COMPOUNDS WITH ANTI-TUMOR ACTIVITY AGAINST CANCER CELLS BEARING TYROSINE KINASE INHIBITOR RESISTANT EGFR MUTATIONS” (BOARD OF REGENTS, THE UNIVERSITY OF TEXAS SYSTEM, priority 2019, published 2026).

A word on the IC50: it is the concentration at which inhibition is half-maximal.

The target of one assay is EGFR Ex19del T790M C797S (Homo sapiens, UniProt P00533, C797S/DEL746-750/T790M). Briefly: Ba/F3 cell viability, Cell Titer Glo. The following applies: read-out: IC50 Values; Ba/F3 cells expressing EGFR Ex19del T790M C797S, 72 hours. (In general: Cellular ATP, detected with luciferase, serves as a proxy for viable cell number.)
Another assay concerns the target WT EGFR (Homo sapiens, UniProt P00533). The settings on record: read-out: IC50 values; Ba/F3 cells expressing WT EGFR (+10 ng/ml EGF), 72 hours.
A further assay has as its target EGFR G719A T790M (Homo sapiens, UniProt P00533, G719A/T790M). Briefly: Ba/F3 cell viability, Cell Titer Glo. The settings on record: read-out: IC50 Values; Ba/F3 cells expressing EGFR G719A T790M, 72 hours.
The target in the next assay is EGFR Ex19del/T790M/L792H (Homo sapiens, UniProt P00533, DEL746-750/L792H/T790M). Briefly: Ba/F3 cell viability, Cell Titer Glo. The settings on record: read-out: IC50 Values; Ba/F3 cells expressing EGFR Ex19del/T790M/L792H, 72 hours.
In a further assay the target is EGFR L858R T790M L718V (Homo sapiens, UniProt P00533, L718V/L858R/T790M). Briefly: Ba/F3 cell viability, Cell Titer Glo. The settings on record: read-out: IC50 Values; Ba/F3 cells expressing EGFR L858R T790M L718V, 72 hours.
Chain of EGFR L858R T790M L718V (P00533 25-1210 L718V/T790M/L858R): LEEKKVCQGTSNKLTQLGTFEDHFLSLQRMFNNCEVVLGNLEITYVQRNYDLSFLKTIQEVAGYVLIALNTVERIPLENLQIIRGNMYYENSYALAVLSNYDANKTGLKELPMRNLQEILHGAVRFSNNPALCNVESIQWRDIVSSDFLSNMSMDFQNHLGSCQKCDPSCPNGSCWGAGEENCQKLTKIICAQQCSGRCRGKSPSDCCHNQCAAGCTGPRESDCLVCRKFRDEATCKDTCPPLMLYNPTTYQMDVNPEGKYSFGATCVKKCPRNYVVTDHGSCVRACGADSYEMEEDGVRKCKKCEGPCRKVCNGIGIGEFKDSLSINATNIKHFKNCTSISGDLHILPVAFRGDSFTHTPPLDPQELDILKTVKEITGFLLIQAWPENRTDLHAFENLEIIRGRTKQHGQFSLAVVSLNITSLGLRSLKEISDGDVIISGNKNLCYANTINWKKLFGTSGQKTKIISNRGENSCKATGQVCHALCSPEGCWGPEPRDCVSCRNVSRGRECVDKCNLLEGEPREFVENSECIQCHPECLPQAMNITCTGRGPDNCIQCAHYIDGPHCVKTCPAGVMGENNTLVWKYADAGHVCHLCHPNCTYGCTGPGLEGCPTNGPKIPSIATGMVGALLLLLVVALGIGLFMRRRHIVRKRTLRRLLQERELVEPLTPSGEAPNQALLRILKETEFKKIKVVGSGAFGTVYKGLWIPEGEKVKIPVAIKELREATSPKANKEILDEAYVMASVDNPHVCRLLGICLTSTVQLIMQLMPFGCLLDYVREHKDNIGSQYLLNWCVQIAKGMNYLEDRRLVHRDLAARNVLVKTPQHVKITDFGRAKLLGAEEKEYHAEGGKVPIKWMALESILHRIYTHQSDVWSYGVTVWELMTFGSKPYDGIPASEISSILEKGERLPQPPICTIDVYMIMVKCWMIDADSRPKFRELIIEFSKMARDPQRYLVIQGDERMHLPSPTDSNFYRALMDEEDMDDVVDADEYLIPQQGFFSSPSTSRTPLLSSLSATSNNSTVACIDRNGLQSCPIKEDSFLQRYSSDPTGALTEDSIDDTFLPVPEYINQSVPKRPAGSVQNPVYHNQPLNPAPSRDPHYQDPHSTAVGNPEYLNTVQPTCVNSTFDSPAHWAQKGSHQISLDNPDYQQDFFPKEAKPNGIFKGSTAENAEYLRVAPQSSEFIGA
The target in the next assay is EGFR Ex19del/T790M/G724S (Homo sapiens, UniProt P00533, DEL746-750/G724S/T790M). Briefly: Ba/F3 cell viability, Cell Titer Glo. The settings on record: read-out: IC50 Values; Ba/F3 cells expressing EGFR Ex19del/T790M/G724S, 72 hours.
The next assay addresses EGFR Ex19delT790M L718V (Homo sapiens, UniProt P00533, DEL746-750/L718V/T790M). Briefly: Ba/F3 cell viability, Cell Titer Glo. The following applies: read-out: IC50 Values; Ba/F3 cells expressing EGFR Ex19delT790M L718V, 72 hours.
A further assay deals with EGFR L858R T790M L792H (Homo sapiens, UniProt P00533, L792H/L858R/T790M). Briefly: Ba/F3 cell viability, Cell Titer Glo. The settings on record: read-out: IC50 Values; Ba/F3 cells expressing EGFR L858R T790M L792H, 72 hours.
In another assay the target is EGFR L858R T790M/C797S (Homo sapiens, UniProt P00533, C797S/L858R/T790M). Briefly: Ba/F3 cell viability, Cell Titer Glo. The settings on record: read-out: IC50 Values; Ba/F3 cells expressing EGFR L858R T790M/C797S, 72 hours.
Chain of EGFR L858R T790M/C797S (P00533 25-1210 T790M/C797S/L858R): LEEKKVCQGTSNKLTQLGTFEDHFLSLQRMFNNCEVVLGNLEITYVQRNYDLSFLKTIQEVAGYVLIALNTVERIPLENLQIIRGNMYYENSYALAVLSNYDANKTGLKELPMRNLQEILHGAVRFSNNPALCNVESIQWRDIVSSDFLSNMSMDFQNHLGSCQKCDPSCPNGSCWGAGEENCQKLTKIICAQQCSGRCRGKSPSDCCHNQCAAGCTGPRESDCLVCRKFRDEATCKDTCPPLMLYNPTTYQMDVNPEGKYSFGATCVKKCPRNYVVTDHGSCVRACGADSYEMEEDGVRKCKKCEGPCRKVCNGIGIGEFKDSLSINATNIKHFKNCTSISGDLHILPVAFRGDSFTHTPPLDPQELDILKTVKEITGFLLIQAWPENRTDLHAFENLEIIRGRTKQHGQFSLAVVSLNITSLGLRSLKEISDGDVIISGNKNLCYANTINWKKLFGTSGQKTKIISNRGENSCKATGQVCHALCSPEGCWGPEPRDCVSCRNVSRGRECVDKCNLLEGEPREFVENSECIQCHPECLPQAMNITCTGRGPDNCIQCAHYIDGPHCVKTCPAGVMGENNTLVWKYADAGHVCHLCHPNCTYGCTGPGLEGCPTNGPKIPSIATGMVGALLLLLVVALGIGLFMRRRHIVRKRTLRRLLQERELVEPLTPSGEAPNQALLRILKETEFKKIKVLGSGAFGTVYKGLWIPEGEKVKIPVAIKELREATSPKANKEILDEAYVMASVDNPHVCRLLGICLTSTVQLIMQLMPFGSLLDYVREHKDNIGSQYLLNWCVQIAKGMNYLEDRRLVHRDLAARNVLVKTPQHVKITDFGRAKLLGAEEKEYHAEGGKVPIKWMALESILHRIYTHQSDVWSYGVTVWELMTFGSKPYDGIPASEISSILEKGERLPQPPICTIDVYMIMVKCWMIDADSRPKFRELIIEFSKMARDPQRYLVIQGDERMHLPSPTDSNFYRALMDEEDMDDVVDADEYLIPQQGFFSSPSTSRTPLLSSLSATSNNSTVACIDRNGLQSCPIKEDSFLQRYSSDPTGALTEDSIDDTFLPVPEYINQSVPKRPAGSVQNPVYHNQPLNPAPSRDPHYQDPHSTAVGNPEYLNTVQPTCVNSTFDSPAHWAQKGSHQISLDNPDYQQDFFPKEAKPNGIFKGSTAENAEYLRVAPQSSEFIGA
In the next assay the target is EGFR T790M (Homo sapiens, UniProt P00533, T790M). Briefly: Ba/F3 cell viability, Cell Titer Glo. The settings on record: read-out: IC50 Values; Ba/F3 cells expressing EGFR T790M, 72 hours.
The target in the next assay is EGFR S768I/T790M (Homo sapiens, UniProt P00533, S768I/T790M). Briefly: Ba/F3 cell viability, Cell Titer Glo. The settings on record: read-out: IC50 Values; Ba/F3 cells expressing EGFR S768I/T790M, 72 hours.
The next assay deals with EGFR L858R/T790M (Homo sapiens, UniProt P00533, L858R/T790M). Briefly: Ba/F3 cell viability, Cell Titer Glo. The following applies: read-out: IC50 Values; Ba/F3 cells expressing EGFR L858R/T790M, 72 hours.
For a further assay, the target named is EGFR Ex19delT790M (Homo sapiens, UniProt P00533, DEL746-750/T790M). Briefly: Ba/F3 cell viability, Cell Titer Glo. The following applies: read-out: IC50 Values; Ba/F3 cells expressing EGFR Ex19delT790M, 72 hours.
Chain of EGFR Ex19delT790M (P00533 with tags, fused parts or gaps DEL746-750/T790M): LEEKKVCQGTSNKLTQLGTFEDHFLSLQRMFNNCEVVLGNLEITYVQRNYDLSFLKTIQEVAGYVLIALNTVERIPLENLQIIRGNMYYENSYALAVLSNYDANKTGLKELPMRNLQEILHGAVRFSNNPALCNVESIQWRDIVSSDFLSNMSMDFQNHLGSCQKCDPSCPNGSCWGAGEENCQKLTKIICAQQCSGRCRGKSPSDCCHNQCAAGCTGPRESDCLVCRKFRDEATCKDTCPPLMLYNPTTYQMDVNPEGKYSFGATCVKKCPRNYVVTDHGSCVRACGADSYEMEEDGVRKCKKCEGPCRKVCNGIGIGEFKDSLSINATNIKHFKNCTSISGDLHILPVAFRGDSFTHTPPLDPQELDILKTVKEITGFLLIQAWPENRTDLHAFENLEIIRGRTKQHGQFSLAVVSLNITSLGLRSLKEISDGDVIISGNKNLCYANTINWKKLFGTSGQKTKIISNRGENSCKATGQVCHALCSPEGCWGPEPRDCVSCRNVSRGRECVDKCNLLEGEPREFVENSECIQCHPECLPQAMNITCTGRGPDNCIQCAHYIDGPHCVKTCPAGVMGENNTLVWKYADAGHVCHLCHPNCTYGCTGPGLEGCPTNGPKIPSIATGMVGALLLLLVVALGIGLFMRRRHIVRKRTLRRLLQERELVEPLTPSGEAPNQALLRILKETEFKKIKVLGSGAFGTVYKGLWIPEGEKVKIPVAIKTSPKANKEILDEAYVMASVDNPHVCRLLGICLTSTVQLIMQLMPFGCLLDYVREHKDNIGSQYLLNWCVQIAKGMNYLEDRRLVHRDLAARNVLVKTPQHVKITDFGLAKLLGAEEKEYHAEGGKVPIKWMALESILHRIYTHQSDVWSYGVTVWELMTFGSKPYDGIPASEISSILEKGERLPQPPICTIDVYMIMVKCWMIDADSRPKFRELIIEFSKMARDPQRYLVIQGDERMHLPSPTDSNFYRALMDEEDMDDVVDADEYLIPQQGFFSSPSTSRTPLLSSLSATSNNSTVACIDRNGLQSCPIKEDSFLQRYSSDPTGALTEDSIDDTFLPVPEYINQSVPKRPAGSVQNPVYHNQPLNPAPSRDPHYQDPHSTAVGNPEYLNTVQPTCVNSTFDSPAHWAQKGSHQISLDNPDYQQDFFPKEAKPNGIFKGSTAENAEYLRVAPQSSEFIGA
In the next assay the target is EGFR L858R T790M V843I (Homo sapiens, UniProt P00533, L858R/T790M/V843I). Briefly: Ba/F3 cell viability, Cell Titer Glo. The settings on record: read-out: IC50 Values; Ba/F3 cells expressing EGFR L858R T790M V843I, 72 hours.
Another assay concerns the target EGFR G724S T790M (Homo sapiens, UniProt P00533, G724S/T790M). Briefly: Ba/F3 cell viability, Cell Titer Glo. The following applies: read-out: IC50 Values; Ba/F3 cells expressing EGFR G724S T790M, 72 hours.
The target in the next assay is EGFR L718Q T790M (Homo sapiens, UniProt P00533, L718Q/T790M). Briefly: Ba/F3 cell viability, Cell Titer Glo. The settings on record: read-out: IC50 Values; Ba/F3 cells expressing EGFR L718Q T790M, 72 hours.
Another assay addresses EGFR L858R/T790M/L718Q (Homo sapiens, UniProt P00533, L718Q/L858R/T790M). Briefly: Ba/F3 cell viability, Cell Titer Glo. The following applies: read-out: IC50 Values; Ba/F3 cells expressing EGFR L858R/T790M/L718Q, 72 hours.

Chain of EGFR G719A T790M (P00533 25-1210 G719A/T790M): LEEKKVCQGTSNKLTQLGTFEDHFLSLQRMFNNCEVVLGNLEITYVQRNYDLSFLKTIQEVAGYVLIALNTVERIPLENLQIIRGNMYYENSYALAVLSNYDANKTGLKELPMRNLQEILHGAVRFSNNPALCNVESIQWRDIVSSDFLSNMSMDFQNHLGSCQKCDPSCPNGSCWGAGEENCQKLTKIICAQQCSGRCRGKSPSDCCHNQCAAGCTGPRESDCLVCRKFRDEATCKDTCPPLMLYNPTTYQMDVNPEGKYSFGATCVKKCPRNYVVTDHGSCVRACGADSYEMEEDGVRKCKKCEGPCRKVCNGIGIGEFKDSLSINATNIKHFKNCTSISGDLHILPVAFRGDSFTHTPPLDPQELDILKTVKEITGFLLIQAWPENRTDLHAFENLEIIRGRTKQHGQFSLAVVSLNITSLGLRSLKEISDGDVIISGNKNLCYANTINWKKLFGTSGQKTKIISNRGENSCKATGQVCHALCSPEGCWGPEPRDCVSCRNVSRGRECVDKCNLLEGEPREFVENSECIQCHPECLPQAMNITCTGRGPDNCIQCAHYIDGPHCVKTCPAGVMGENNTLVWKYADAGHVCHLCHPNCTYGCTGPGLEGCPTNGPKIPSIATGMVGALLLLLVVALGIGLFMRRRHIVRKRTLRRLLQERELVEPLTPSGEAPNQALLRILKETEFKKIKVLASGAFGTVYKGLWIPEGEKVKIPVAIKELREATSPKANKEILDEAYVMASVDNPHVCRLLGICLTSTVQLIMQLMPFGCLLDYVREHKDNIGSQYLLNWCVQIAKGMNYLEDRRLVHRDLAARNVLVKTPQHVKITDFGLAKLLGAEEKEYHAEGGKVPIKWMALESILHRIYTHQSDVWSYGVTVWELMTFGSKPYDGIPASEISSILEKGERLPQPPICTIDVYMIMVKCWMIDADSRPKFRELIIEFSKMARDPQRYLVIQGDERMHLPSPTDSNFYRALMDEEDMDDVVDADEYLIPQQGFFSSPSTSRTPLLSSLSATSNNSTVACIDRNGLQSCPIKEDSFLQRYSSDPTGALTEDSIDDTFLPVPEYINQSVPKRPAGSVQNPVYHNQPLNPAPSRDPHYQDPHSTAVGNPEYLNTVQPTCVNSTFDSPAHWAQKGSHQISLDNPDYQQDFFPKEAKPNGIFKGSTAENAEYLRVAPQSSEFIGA
Method for EGFR Ex19del T790M C797S: (§1) Cell viability was determined by the Cell Titer Glo assay.
(§2) Briefly, stable Ba/F3 cell lines were generated by retroviral transduction of Ba/F3 cell line for 12 hours. […] Three days after transduction, 2 μg/ml puromycin (Invitrogen) was added to the RPMI media. Cell lines were then grown in the absence of IL-3 for two weeks and cell viability was assessed every three days using the Cell Titer Glo assay (Progema).
(§3) Briefly, 2000-3000 cells per well were plated in 384-well plates (Greiner Bio-One) in technical triplicate. Cells were treated with seven different concentrations of tyrosine kinase inhibitors or vehicle alone at a final volume of 40 μL per well. After 3 days, 11 μL of Cell Titer Glo was added to each well. Plates were shaken for 15 minutes, and bioluminescence was determined using a FLUOstar OPTIMA multi-mode micro-plate reader (BMG LABTECH). Bioluminescence values were normalized to DMSO treated cells, and normalized values were plotted in GraphPad Prism using non-linear regression fit to normalized data with a variable slope.
Method for EGFR Ex19del/T790M/G724S: as §1, §3
Method for EGFR Ex19del/T790M/L792H: as §1, §2, §3
Method for EGFR Ex19delT790M L718V: as §1, §2, §3
Method for EGFR G719A T790M: as §1, §3
Method for EGFR G724S T790M: as §1, §2, §3
Method for EGFR L718Q T790M: as §1, §2, §3
Method for EGFR L858R T790M L718V: as §1, §2, §3
Method for EGFR L858R T790M L792H: as §1, §2, §3
Method for EGFR L858R T790M V843I: as §1, §2, §3
Method for EGFR L858R T790M/C797S: as §1, §2, §3
Method for EGFR L858R/T790M/L718Q: as §1, §2, §3
Method for EGFR S768I/T790M: as §1, §3
Method for EGFR T790M: as §1, §2, §3
Method for WT EGFR: as §1, §2, §3

Regarding `COc1cc(N2CCC(N)CC2)ccc1Nc1ncc(Cl)c(-c2c[nH]c3ccccc23)n1` [AZD3463], the half-inhibitory concentration (IC50) at EGFR Ex19del T790M C797S was 1.44 µM; on WT EGFR, 1.63 µM; on EGFR G719A T790M, 1.34 µM; on EGFR Ex19del/T790M/L792H, 1.09 µM; at EGFR L858R T790M L718V, 0.662 µM; on EGFR Ex19del/T790M/G724S, 1.61 µM. The half-inhibitory concentration (IC50) is 1.34 µM at EGFR Ex19delT790M L718V; 1.55 µM at EGFR L858R T790M L792H; 1.27 µM at EGFR L858R T790M/C797S; 1.27 µM on EGFR T790M; 1.73 µM at EGFR S768I/T790M; 2.4 µM on EGFR L858R/T790M. Further, the IC50 at EGFR Ex19delT790M is 0.255 µM; on EGFR L858R T790M V843I it was 0.768 µM; on EGFR G724S T790M it was 0.695 µM; on EGFR L718Q T790M, 1.14 µM; at EGFR L858R/T790M/L718Q it was 1.12 µM.
